Values of other authors as cited in patent publication US7001916B1, “Epothilon derivatives, method for the production and the use thereof as pharmaceuticals” (priority 1999, dated 2006).

System: P-glycoprotein-forming multiresistant tumor lines
Conditions: in comparison to taxol

Row | Compound | activity against P-glycoprotein-forming multiresistant tumor lines
1 | C/C(=C\c1csc(C)n1)[C@@H]1C[C@@H]2O[C@]2(C)CCC[C@H](C)[C@H](O)[C@@H](C)C(=O)C(C)(C)[C@@H](O)CC(=O)O1 [Epothilone B, epothilone B] | significantly higher activity
2 | C/C(=C\c1csc(C)n1)[C@@H]1C[C@@H]2O[C@@H]2CCC[C@H](C)[C@H](O)[C@@H](C)C(=O)C(C)(C)[C@@H](O)CC(=O)O1 [Epothilone A, epothilone A] | significantly higher activity
